Measured values from patent US20240317723A1, “SUBSTITUTED AMINO AZA-HETEROARYL COMPOUNDS AS INHIBITORS OF THE HAEMATOPOIETIC PROGENITOR KINASE 1 (HPK1)” (priority 2021, published 2024).

How the values were obtained:
Lck (h) = Lck (h) (Homo sapiens, UniProt P06239); test: Lck Human STE Kinase Enzymatic Radiometric Assay; type: biochemical; conditions: for Selectivity: selectivity for inhibition of HPK1 vs Lck; for IC50: radiometric, [gamma-33P]-ATP, Cdc2 peptide substrate, read-out: Lck IC50, nM Range*
Description: (b) Lck Human STE Kinase Enzymatic Radiometric Assay
Lck (h) is incubated with 50 mM Tris pH 7.5, 0.1 mM EGTA, 0.1 mM Na3VO4, 250 uM KVEKIGEGTYGVVYK (Cdc2 peptide), 10 mM MgAcetate and [gamma-33P]-ATP (specific activity and concentration as required). The reaction is initiated by the addition of the Mg/ATP mix. After incubation for 40 minutes at room temperature, the reaction is stopped by the addition of phosphoric acid to a concentration of 0.5%. 10 uL of the reaction is then spotted onto a P30 filtermat and washed four times for 4 minutes in 0.425% phosphoric acid and once in methanol prior to drying and scintillation counting. For more details on the kinase assay procedures see: Gao, Y. et. al.; Biochem J., 451 (2): 313-328, 2013.
In some embodiments the presence of substituents on monocyclic Cy^2 rings or when Cy^2 is a bicyclic ring (unsubstituted or substituted) provides compounds with improved selectivity for inhibition of HPK1 vs Lck (see, for example, Table 3 and Table 4).

[1] = target: T1, Recombinant (1-346) HPK1 (h) (Homo sapiens, UniProt Q92918); test: HPK1 Human STE Kinase Enzymatic Radiometric Assay; type: biochemical; conditions: [gamma-33P]-ATP, myelin basic protein substrate, read-out: HPK1 IC50 nM Range*
T1 construct: Recombinant (1-346) HPK1 (h) is incubated with 8 mM MOPS pH 7.0
T1 sequence (Q92918 1-346): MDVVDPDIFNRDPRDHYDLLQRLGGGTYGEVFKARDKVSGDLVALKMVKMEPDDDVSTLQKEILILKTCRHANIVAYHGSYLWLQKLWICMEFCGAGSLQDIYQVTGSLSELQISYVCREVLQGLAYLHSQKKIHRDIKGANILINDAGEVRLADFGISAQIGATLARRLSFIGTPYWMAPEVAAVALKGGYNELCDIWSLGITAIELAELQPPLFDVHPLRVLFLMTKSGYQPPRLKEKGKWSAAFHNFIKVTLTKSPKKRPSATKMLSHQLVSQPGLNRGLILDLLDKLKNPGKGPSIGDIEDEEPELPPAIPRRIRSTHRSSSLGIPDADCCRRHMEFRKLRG
Description: (a) HPK1 Human STE Kinase Enzymatic Radiometric Assay
A stock solution of 10 mM of test compound is prepared in DMSO. The compound plate was prepared by 3-fold and 9-point serial dilutions. Recombinant (1-346) HPK1 (h) is incubated with 8 mM MOPS pH 7.0, 0.2 mM EDTA, 0.33 mg/mL myelin basic protein, 10 mM MgAcetate and [gamma-33P]-ATP (specific activity and concentration as required). The reaction is initiated by the addition of the Mg/ATP mix. After incubation for 40 minutes at RT, the reaction is stopped by the addition of phosphoric acid to a concentration of 0.5%. 10 uL of the reaction is then spotted onto a P30 filtermat and washed four times for 4 minutes in 0.425% phosphoric acid and once in methanol prior to drying and scintillation counting. For more details of kinase assay protocols, see: Gao, Y. et. al.; Biochem J. 451 (2): 313-328, 2013.

Sequence of Lck (h) (P06239 whole entry): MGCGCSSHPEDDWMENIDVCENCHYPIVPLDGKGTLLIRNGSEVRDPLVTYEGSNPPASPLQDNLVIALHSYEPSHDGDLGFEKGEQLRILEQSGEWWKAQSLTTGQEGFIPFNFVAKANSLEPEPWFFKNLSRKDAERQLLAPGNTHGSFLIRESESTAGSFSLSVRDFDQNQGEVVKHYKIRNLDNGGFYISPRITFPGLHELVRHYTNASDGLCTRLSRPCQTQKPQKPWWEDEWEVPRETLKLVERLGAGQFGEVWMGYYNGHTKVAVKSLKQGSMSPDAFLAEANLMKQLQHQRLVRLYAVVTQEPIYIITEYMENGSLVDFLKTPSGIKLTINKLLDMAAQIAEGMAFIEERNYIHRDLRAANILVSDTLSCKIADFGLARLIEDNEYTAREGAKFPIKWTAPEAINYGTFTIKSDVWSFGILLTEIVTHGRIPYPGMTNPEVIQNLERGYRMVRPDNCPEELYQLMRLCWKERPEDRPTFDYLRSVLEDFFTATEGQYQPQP

SMILES	Selectivity (Lck (h))	IC50 [1]	IC50 (Lck (h))
Nc1ncc(-c2ccc(N3CCOCC3)cc2)nc1-c1ccc2c(c1)CCNC2=O [Comparator 1, 6-(3-amino-6-(4-morpholinophenyl)pyrazin-2-yl)-3,4-dihydroisoquinolin-1(2H)-one, reference compound]	31		
Nc1ncc(-c2ccc(N3CCOCC3)c(F)c2F)nc1-c1ccc2c(c1)CCNC2=O [Comparator 2, 6-(3-amino-6-(2,3-difluoro-4-morpholinophenyl)pyrazin-2-yl)-3,4-dihydroisoquinolin-1(2H)-one, reference compound]	930		
Nc1ncc(-c2ccc(N3CCOCC3)cc2F)nc1-c1ccc2c(c1)CCNC2=O [Comparator 4, 6-(3-amino-6-(2-fluoro-4-morpholinophenyl)pyrazin-2-yl)-3,4-dihydroisoquinolin-1(2H)-one, reference compound]	405		
C[C@@H]1COCCN1c1ccc(-c2cnc(N)c(-c3ccc4c(c3)CCNC4=O)n2)cc1 [Example I-11, (R)-6-(3-amino-6-(4-(3-methylmorpholino)phenyl)pyrazin-2-yl)-3,4-dihydroisoquinolin-1(2H)-one]	170	0.1 to 5 nM	11 to 20 nM
CN1CCN(c2ccc(-c3cnc(N)c(-c4cc5c(cc4F)C(=O)NCC5)n3)cc2)CC1 [Example I-12, 6-(3-amino-6-(4-(4-methylpiperazin-1-yl)phenyl)pyrazin-2-yl)-7-fluoro-3,4-dihydroisoquinolin-1(2H)-one]		0.1 to 5 nM	11 to 20 nM
CC(C)[C@@H]1CN(c2ccc(-c3cnc(N)c(-c4ccc5c(c4)CCNC5=O)n3)c(F)c2)CCO1 [Example I-13, (R)-6-(3-amino-6-(2-fluoro-4-(2-isopropylmorpholino)phenyl)pyrazin-2-yl)-3,4-dihydroisoquinolin-1(2H)-one]	2740	0.1 to 5 nM	21 to 200 nM
CN1CCN(c2ccc(-c3cc(-c4ccc5c(c4)CCNC5=O)c(N)nn3)cc2)CC1 [Example I-49, 6-(3-amino-6-(4-(4-methylpiperazin-1-yl)phenyl)pyridazin-4-yl)-3,4-dihydroisoquinolin-1(2H)-one]		21 to 200 nM	
Cc1cc2cc(-c3nc(-c4ccc(N5CCN(C)CC5)cc4)cnc3N)ccc2c(=O)[nH]1 [Example I-51, 6-(3-amino-6-(4-(4-methylpiperazin-1-yl)phenyl)pyrazin-2-yl)-3-methylisoquinolin-1(2H)-one]		0.1 to 5 nM	
CC(C)N1CCN(c2ccc(-c3cnc(N)c(-c4ccc5c(c4)CCNC5=O)n3)cc2)[C@H](C)C1 [Example I-53, (R)-6-(3-amino-6-(4-(4-isopropyl-2-methylpiperazin-1-yl)phenyl)pyrazin-2-yl)-3,4-dihydroisoquinolin-1(2H)-one]		0.1 to 5 nM	
C[C@@H]1CN(C)CCN1c1ccc(-c2cnc(N)c(-c3ccc4c(c3)CCNC4=O)n2)cc1 [Example I-54, (R)-6-(3-amino-6-(4-(2,4-dimethylpiperazin-1-yl)phenyl)pyrazin-2-yl)-3,4-dihydroisoquinolin-1(2H)-one]		0.1 to 5 nM	
C[C@@H]1CN(c2ccc(-c3cnc(N)c(-c4ccc5c(c4)CCNC5=O)n3)cc2)C[C@H](C)N1C [Example I-55, 6-(3-amino-6-(4-((3R,5S)-3,4,5-trimethylpiperazin-1-yl)phenyl)pyrazin-2-yl)-3,4-dihydroisoquinolin-1(2H)-one]		0.1 to 5 nM	
CCN1CCN(c2ccc(-c3cnc(N)c(-c4ccc5c(c4)CCNC5=O)n3)cc2)CC1 [Example I-56, 6-(3-amino-6-(4-(4-ethylpiperazin-1-yl)phenyl)pyrazin-2-yl)-3,4-dihydroisoquinolin-1(2H)_-one]		0.1 to 5 nM	
Cc1nc2cc(-c3nc(-c4ccc(N5CCN(C)CC5)cc4)cnc3N)ccc2c(=O)[nH]1 [Example I-57, 7-(3-amino-6-(4-(4-methylpiperazin-1-yl)phenyl)pyrazin-2-yl)-2-methylquinazolin-4(3H)-one]		6 to 10 nM	
CN(C)Cc1cc(C2CCOCC2)ccc1-c1cnc(N)c(-c2cc3c(cc2F)C(=O)NCC3)n1 [II-1, 6-(3-amino-6-(2-((dimethylamino)methyl)-4-(tetrahydro-2H-pyran-4-yl)phenyl)pyrazin-2-yl)-7-fluoro-3,4-dihydroisoquinolin-1(2H)-one]		6 to 10 nM	
Cc1c[nH]c(=O)c2cc(F)c(-c3nc(-c4ccc(C5CCOCC5)c(CN(C)C)c4)cnc3N)cc12 [II-2, 6-(3-amino-6-(3-((dimethylamino)methyl)-4-(tetrahydro-2H-pyran-4-yl)phenyl)pyrazin-2-yl)-7-fluoro-4-methylisoquinolin-1(2H)-one]		0.1 to 5 nM	
Cc1cc2cc(-c3nc(-c4ccc(C5CCOCC5)c(CN(C)C)c4)cnc3N)cc(F)c2c(=O)[nH]1 [II-4, 6-(3-amino-6-(3-((dimethylamino)methyl)-4-(tetrahydro-2H-pyran-4-yl)phenyl)pyrazin-2-yl)-8-fluoro-3-methylisoquinolin-1(2H)-one]		0.1 to 5 nM	
Cc1[nH]c(=O)c2c(F)cc(-c3nc(-c4ccc(C5CCOCC5)c(CN(C)C)c4)cnc3N)cc2c1F [II-5, 6-(3-amino-6-(3-((dimethylamino)methyl)-4-(tetrahydro-2H-pyran-4-yl)phenyl)pyrazin-2-yl)-4,8-difluoro-3-methylisoquinolin-1(2H)-one]		0.1 to 5 nM	

Results, then the compound that gave them:

Selectivity (Lck (h))	IC50 [1]	IC50 (Lck (h))	SMILES
	0.1 to 5 nM	6 to 10 nM	CN1CCN(c2ccc(-c3cnc(N)c(-c4ccc5c(c4)CCNC5=O)n3)cc2)CC1 [Example I-1, 6-(3-amino-6-(4-(4-methylpiperazin-1-yl)phenyl)pyrazin-2-yl)-3,4-dihydroisoquinolin-1(2H)-one]
	0.1 to 5 nM	6 to 10 nM	CN1CCN(c2ccc(-c3cnc(N)c(-c4ccc5c(c4)C(C)(C)NC5=O)n3)cc2)CC1 [Example I-2, 5-(3-amino-6-(4-(4-methylpiperazin-1-yl)phenyl)pyrazin-2-yl)-3,3-dimethylisoindolin-1-one]
	0.1 to 5 nM	6 to 10 nM	CC(C)N1CCN(c2ccc(-c3cnc(N)c(-c4ccc5c(c4)CCNC5=O)n3)cc2)CC1 [Example I-3, 6-(3-amino-6-(4-(4-isopropylpiperazin-1-yl)phenyl)pyrazin-2-yl)-3,4-dihydroisoquinolin-1(2H)-one]
	0.1 to 5 nM	6 to 10 nM	CN1CCN(c2ccc(-c3cnc(N)c(-c4ccc5c(c4)CCNC5=O)n3)cc2F)CC1 [Example I-4, 6-(3-amino-6-(3-fluoro-4-(4-methylpiperazin-1-yl)phenyl)pyrazin-2-yl)-3,4-dihydroisoquinolin-1(2H)-one]
	0.1 to 5 nM	6 to 10 nM	CN1CCN(c2ccc(-c3cnc(N)c(-c4cc(F)c5c(c4)CCNC5=O)n3)cc2)CC1 [Example I-5, 6-(3-amino-6-(4-(4-methylpiperazin-1-yl)phenyl)pyrazin-2-yl)-8-fluoro-3,4-dihydroisoquinolin-1(2H)-one]
	0.1 to 5 nM	11 to 20 nM	Nc1ncc(-c2ccc(N3CCC(O)CC3)cc2)nc1-c1ccc2c(c1)CCNC2=O [Example I-6, 6-(3-amino-6-(4-(4-hydroxypiperidin-1-yl)phenyl)pyrazin-2-yl)-3,4-dihydroisoquinolin-1(2H)-one]
	0.1 to 5 nM	11 to 20 nM	CC(C)[C@@H]1CN(c2ccc(-c3cnc(N)c(-c4ccc5c(c4)CCNC5=O)n3)cc2)CCO1 [Example I-7, (R)-6-(3-amino-6-(4-(2-isopropylmorpholino)phenyl)pyrazin-2-yl)-3,4-dihydroisoquinolin-1(2H)-one]
170	0.1 to 5 nM	11 to 20 nM	CC(C)[C@H]1CN(c2ccc(-c3cnc(N)c(-c4ccc5c(c4)CCNC5=O)n3)cc2)CCO1 [Example I-8, (S)-6-(3-amino-6-(4-(2-isopropylmorpholino)phenyl)pyrazin-2-yl)-3,4-dihydroisoquinolin-1(2H)-one]
	0.1 to 5 nM	11 to 20 nM	CN([C@H]1CCN(c2ccc(-c3cnc(N)c(-c4ccc5c(c4)CCNC5=O)n3)cc2)C1)S(C)(=O)=O [Example I-10, (S)-N-(1-(4-(5-amino-6-(1-oxo-1,2,3,4-tetrahydroisoquinolin-6-yl)pyrazin-2-yl)phenyl)pyrrolidin-3-yl)-N-methylmethanesulfonamide]
